Like-named read-outs stand apart in the source and are kept apart here.
Target: CYP3A4 (Homo sapiens, UniProt P08684)
Assay: inhibition of testosterone metabolism in Caco-2/TC7 cells (HPLC)
Type: cell-based
[1] = read-out: % inhibition at 10 μM

CYP3A4, sequence (P08684 2-503): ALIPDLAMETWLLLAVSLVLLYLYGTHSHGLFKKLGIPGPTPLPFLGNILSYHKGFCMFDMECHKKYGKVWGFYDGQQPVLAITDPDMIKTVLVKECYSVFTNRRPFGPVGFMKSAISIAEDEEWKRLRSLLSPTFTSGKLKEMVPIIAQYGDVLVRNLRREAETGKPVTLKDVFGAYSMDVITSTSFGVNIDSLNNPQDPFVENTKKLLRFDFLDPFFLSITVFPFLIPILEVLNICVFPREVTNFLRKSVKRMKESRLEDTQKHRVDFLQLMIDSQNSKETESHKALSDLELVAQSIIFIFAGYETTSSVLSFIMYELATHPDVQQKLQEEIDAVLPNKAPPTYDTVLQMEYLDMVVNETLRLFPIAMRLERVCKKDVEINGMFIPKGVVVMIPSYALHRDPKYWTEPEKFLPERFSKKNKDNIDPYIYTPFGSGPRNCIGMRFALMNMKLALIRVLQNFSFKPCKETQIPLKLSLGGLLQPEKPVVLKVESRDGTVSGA

CC(=O)Oc1ccc(/C=C/c2cc(O)cc(OC(C)=O)c2)cc1 [DAR, 3,4′-acetoxy-5-hydroxy-stilbene]
inhibition at 10 µM [1]: 45%

CC(=O)Oc1ccc(/C=C/c2cc(O)cc(O)c2)cc1 [MAR, 4′-acetoxy-3,5-hydroxy-stilbene]
inhibition at 10 µM [1]: 24%

CC(=O)Oc1ccc(/C=C/c2cc(OC(C)=O)cc(OC(C)=O)c2)cc1 [TAR, 3,4′,5-acetoxystilbene]
inhibition at 10 µM [1]: 10%

CC(=O)N1CCN(c2ccc(OC[C@H]3COC(Cn4ccnc4)(c4ccc(Cl)cc4Cl)O3)cc2)CC1 (some centres unmarked) [ketoconazole, reference compound]
inhibition at 10 µM: ~80%

Oc1ccc(/C=C/c2cc(O)cc(O)c2)cc1 [resveratrol, trans-3,4′,5-trihydroxystilbene]
inhibition at 10 µM [1]: > 80%

From paper PMC4987671, “Inhibition of cytochrome P450 3A by acetoxylated analogues of resveratrol in in vitro and in silico models” (Scientific Reports, 2016)
